Values after ≈ are worked out from the molar mass of the structure shown.
Experiments:
[1] = Intrinsic clearance in human liver microsomes; format: ADME; details: read-out: CLH
[2] = Equilibrium solubility of the compound; format: physicochemical
[3] = target: Transient receptor potential cation channel subfamily M member 8 (Homo sapiens, UniProt Q7Z2W7); experiment: Antagonist activity at human TRPM8 expressed in HEK293 cells assessed as inhibition of menthol induced Ca2+ influx; format: cell-based
Transient receptor potential cation channel subfamily M member 8 (Homo sapiens, UniProt Q7Z2W7), sequence (Q7Z2W7 whole entry): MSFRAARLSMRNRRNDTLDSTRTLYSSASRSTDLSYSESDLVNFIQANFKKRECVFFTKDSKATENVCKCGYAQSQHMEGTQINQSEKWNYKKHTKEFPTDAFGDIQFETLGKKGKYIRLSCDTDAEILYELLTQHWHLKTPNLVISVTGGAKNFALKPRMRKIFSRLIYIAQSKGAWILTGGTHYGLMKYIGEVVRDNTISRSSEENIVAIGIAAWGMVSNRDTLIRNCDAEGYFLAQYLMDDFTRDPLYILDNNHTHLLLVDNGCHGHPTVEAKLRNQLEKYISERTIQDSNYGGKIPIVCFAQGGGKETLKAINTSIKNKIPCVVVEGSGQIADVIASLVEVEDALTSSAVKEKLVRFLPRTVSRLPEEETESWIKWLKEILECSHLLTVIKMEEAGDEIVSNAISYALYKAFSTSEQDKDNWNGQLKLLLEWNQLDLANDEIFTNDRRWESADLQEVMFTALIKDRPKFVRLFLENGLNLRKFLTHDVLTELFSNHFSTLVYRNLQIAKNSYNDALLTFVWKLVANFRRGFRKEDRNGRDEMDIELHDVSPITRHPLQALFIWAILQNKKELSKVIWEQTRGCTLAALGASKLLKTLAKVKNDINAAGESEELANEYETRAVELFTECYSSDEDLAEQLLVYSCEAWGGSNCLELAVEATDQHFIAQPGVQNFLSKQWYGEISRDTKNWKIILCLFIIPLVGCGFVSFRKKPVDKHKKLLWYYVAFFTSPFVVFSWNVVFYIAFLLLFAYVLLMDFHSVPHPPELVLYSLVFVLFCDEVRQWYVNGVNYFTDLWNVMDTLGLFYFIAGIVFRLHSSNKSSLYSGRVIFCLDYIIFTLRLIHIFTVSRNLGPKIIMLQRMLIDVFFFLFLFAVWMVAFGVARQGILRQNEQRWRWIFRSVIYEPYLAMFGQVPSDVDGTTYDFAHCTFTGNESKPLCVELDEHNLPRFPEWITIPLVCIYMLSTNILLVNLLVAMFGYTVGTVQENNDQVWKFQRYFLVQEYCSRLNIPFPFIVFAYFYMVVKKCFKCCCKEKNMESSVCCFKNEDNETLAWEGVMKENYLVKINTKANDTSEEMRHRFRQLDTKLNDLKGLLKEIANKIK

[4] = Cmax in rat at 3 mg/kg, po; format: ADME, organism-based; parameters: dose 3 mg/kg, route oral; details: in vivo
Rattus norvegicus = experiment: Antiallodynic activity in icilin-induced wet-dog shake rat model compound administered po 1 hr prior to icilin challenge measured over 30 mins; format: functional
[5] = target: Transient receptor potential cation channel subfamily A member 1 (Rattus norvegicus, UniProt Q6RI86); experiment: Antagonist activity at rat TRPA1 expressed in HEK293 cells assessed as inhibition of AITC-induced Ca2+ influx; format: cell-based
Transient receptor potential cation channel subfamily A member 1 (Rattus norvegicus, UniProt Q6RI86), sequence (Q6RI86 whole entry): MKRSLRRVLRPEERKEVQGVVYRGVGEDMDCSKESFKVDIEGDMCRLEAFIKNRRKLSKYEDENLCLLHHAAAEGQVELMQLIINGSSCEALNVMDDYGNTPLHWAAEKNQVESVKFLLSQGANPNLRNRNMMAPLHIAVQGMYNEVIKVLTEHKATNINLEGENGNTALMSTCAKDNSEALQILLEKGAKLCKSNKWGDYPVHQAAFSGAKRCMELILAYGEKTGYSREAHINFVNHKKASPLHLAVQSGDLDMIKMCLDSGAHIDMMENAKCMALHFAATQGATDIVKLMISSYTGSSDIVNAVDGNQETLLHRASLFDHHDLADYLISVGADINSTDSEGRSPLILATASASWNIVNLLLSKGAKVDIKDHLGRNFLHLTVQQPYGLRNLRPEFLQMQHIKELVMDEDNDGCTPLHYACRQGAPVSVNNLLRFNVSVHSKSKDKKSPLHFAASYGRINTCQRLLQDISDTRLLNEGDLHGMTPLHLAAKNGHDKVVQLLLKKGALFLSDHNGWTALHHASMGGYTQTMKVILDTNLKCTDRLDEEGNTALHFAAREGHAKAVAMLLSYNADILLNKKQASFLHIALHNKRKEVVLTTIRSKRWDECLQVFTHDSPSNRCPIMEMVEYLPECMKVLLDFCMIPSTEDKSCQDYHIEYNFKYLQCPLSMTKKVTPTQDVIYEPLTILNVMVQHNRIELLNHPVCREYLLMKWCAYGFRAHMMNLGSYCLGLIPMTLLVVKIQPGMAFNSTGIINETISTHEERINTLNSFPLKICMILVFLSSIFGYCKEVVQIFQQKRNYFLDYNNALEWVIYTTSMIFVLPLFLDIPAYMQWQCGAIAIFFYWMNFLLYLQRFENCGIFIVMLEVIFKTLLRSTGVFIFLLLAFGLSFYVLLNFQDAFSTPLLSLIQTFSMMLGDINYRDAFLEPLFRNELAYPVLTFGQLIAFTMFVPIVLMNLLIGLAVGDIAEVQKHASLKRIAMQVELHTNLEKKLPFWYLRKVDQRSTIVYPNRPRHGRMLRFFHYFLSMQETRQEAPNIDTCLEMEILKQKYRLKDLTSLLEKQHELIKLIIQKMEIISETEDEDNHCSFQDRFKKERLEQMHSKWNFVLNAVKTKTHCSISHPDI

[6] = target: Transient receptor potential cation channel subfamily M member 8 (Rattus norvegicus, UniProt Q8R455); experiment: Antagonist activity at rat TRPM8 assessed as inhibition of menthol induced Ca2+ influx by cell-based assay
Transient receptor potential cation channel subfamily M member 8 (Rattus norvegicus, UniProt Q8R455), sequence (Q8R455 whole entry): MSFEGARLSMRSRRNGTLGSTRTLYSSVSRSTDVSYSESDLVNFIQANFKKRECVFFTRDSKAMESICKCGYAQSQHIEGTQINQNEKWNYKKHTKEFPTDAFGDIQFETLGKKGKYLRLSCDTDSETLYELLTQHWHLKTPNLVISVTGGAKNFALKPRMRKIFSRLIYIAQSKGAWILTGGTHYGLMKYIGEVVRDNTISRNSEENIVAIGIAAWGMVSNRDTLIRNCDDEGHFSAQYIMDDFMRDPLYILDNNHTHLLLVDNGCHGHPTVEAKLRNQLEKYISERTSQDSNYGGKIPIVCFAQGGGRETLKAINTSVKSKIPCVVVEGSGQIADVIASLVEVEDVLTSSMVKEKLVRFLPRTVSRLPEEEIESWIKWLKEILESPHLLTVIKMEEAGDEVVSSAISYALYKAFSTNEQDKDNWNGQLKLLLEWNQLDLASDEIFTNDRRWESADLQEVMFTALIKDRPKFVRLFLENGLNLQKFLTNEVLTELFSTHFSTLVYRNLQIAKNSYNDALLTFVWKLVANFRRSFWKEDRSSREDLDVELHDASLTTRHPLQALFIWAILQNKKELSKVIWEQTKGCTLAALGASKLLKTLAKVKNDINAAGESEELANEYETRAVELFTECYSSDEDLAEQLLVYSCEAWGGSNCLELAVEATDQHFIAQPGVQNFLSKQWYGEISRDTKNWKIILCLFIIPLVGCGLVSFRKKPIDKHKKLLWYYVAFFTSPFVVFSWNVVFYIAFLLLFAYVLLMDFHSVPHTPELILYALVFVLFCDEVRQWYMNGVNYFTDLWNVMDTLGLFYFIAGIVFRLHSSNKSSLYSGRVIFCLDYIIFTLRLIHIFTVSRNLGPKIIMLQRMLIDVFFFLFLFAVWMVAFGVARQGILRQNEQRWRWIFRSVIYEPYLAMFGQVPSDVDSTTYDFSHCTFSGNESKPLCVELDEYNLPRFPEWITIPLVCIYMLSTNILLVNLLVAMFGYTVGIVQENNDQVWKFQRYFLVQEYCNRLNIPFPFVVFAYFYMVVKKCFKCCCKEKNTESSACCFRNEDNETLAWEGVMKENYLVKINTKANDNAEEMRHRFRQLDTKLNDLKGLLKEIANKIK

[7] = target: Transient receptor potential cation channel subfamily V member 1 (Homo sapiens, UniProt Q8NER1); experiment: Antagonist activity at human TRPV1 expressed in HEK293 cells assessed as inhibition of capsaicin-induced Ca2+ influx; format: cell-based
[8] = Intrinsic clearance in rat liver microsomes; format: ADME; details: read-out: CLH
[9] = Fraction unbound in rat plasma; format: ADME, cell-free
[10] = target: Transient receptor potential cation channel subfamily V member 4 (Homo sapiens, UniProt Q9HBA0); experiment: Antagonist activity at human TRPV4 expressed in HEK293 cells assessed as inhibition of hypotonic solution-induced Ca2+ influx; format: cell-based
[11] = Oral bioavailability in rat at 3 mg/kg; format: ADME, organism-based; details: in vivo
[12] = target: Transient receptor potential cation channel subfamily V member 1 (Rattus norvegicus, UniProt O35433); experiment: Antagonist activity at rat TRPV1 expressed in HEK293 cells assessed as inhibition of capsaicin-induced Ca2+ influx; format: cell-based
[13] = target: Transient receptor potential cation channel subfamily A member 1 (Homo sapiens, UniProt O75762); experiment: Antagonist activity at human TRPA1 expressed in HEK293 cells assessed as inhibition of AITC-induced Ca2+ influx; format: cell-based
Transient receptor potential cation channel subfamily A member 1 (Homo sapiens, UniProt O75762), sequence (O75762 whole entry): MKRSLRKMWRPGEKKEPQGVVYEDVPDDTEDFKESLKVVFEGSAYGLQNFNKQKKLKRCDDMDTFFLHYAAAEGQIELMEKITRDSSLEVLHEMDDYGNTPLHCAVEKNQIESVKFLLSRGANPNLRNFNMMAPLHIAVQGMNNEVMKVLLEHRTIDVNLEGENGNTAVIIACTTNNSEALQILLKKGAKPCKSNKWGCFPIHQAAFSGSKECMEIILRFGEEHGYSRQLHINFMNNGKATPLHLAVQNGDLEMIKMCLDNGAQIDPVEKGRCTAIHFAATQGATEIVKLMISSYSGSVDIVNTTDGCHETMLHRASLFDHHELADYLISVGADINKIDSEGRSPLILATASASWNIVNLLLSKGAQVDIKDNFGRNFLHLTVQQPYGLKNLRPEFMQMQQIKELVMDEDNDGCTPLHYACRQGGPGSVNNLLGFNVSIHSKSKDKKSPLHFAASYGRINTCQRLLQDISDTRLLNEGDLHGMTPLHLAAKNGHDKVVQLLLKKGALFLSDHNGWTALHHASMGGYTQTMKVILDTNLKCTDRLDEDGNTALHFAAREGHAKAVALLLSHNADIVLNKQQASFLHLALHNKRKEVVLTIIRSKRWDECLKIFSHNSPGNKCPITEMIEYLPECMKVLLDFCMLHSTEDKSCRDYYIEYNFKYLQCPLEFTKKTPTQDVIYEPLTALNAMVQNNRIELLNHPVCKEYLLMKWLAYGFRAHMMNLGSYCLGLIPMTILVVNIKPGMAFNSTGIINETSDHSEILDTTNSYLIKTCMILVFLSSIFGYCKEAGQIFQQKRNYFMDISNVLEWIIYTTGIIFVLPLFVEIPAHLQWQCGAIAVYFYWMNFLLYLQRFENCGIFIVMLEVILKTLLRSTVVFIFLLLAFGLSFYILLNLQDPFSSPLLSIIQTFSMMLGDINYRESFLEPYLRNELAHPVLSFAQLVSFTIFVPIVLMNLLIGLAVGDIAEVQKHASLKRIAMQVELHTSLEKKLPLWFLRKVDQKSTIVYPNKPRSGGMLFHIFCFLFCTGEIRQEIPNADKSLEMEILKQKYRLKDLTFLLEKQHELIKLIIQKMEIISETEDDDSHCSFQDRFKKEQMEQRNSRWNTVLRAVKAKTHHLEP

SMILES: O=C(O)c1ccc(S(=O)(=O)N(Cc2ccccc2)c2ncc(C(F)(F)F)cc2Cl)cc1
- CLint scaled [1]: < 7 mL/min/kg
- solubility thermodynamic [2]: 185 µM (≈ 87.1 µg/mL)
- IC50 [3]: 61 nM

SMILES: O=S(=O)(c1ccc(CO)cc1)N(Cc1ccccc1)c1ncc(C(F)(F)F)cc1Cl
- CLint scaled [1]: > 168 mL/min/kg
- solubility thermodynamic [2]: 35 µM (≈ 16 µg/mL)
- IC50 [3]: 42 nM

SMILES: CN(C)C(=O)c1ccc(S(=O)(=O)N(Cc2ccccc2)c2ncc(C(F)(F)F)cc2Cl)cc1
- CLint scaled [1]: > 168 mL/min/kg
- solubility thermodynamic [2]: 37 µM (≈ 18.4 µg/mL)
- IC50 [3]: 67 nM

SMILES: O=C(O)c1ccc(S(=O)(=O)N(Cc2ccccc2)c2ncccc2Cl)cc1
- IC50 [3]: 9860 nM

SMILES: Cc1cc(C(F)(F)F)cnc1N(Cc1ccccc1)S(=O)(=O)c1ccc(C(=O)O)cc1
- IC50 [3]: 736 nM

SMILES: N#Cc1cc(C(F)(F)F)cnc1N(Cc1ccccc1)S(=O)(=O)c1ccc(C(=O)O)cc1
- IC50 [3]: 2470 nM

SMILES: O=C(O)c1ccc(S(=O)(=O)N(CCc2ccccc2)c2ncc(C(F)(F)F)cc2Cl)cc1
- IC50 [3]: 762 nM

SMILES: O=C(O)c1ccc(S(=O)(=O)N(CCCc2ccccc2)c2ncc(C(F)(F)F)cc2Cl)cc1
- CLint scaled [1]: 81 mL/min/kg
- IC50 [3]: 49 nM

SMILES: O=C(O)c1ccc(S(=O)(=O)N(CCN2CCOCC2)c2ncc(C(F)(F)F)cc2Cl)cc1
- CLint scaled [1]: < 7 mL/min/kg
- IC50 [3]: 3720 nM

SMILES: O=C(O)c1ccc(S(=O)(=O)N(Cc2cccc(C(F)(F)F)c2)c2ncc(C(F)(F)F)cc2Cl)cc1
- CLint scaled [1]: < 7 mL/min/kg
- IC50 [3]: 41 nM

SMILES: O=C(O)c1ccc(S(=O)(=O)N(Cc2ccccc2OC(F)(F)F)c2ncc(C(F)(F)F)cc2Cl)cc1
- CLint scaled [1]: < 7 mL/min/kg
- IC50 [3]: 96 nM

SMILES: O=C(O)c1ccc(S(=O)(=O)N(Cc2ccc(OC(F)(F)F)cc2)c2ncc(C(F)(F)F)cc2Cl)cc1
- Cmax [4]: 2300 ng/mL
- ED50 (Rattus norvegicus): 0.65 mg/kg
- IC50 [5]: > 10000 nM
- CLint scaled [1]: < 7 mL/min/kg
- IC50 [6]: 5.8 nM
- IC50 [7]: > 10000 nM
- CLint scaled [8]: < 10.4 mL/min/kg
- fraction unbound [9]: 0.0031
- IC50 [10]: > 3000 nM
- bioavailability [11]: 86%
- IC50 [3]: 8.3 nM
- IC50 [12]: > 3000 nM
- IC50 [13]: > 10000 nM

SMILES: O=C(O)c1ccc(S(=O)(=O)N(Cc2ccc(C(F)(F)F)cc2)c2ncc(Cl)cc2Cl)cc1
- ED50 (Rattus norvegicus): 1.3 mg/kg
- CLint scaled [1]: < 7 mL/min/kg
- IC50 [6]: 9 nM
- CLint scaled [8]: < 10.4 mL/min/kg
- fraction unbound [9]: 0.011
- IC50 [3]: 11 nM

SMILES: Cc1c(N(Cc2ccc(C(F)(F)F)c(F)c2)S(=O)(=O)c2ccc(C(=O)O)cc2)sc2ccccc12
- CLint scaled [1]: 8.5 mL/min/kg
- IC50 [3]: 6.2 nM
